This is an account of results in patent US20190177284A1, “TETRAZOLYL-CONTAINING CYCLOPROPANECARBOXAMIDES” (Bayer Pharma Aktiengesellschaft, priority 2017, published 2019).

For series [1] the following is noted: cited from earlier work.
The conditions of series [2]: cited from earlier work. This is another data set of the same source.
The conditions of series [3]: cited from earlier work. The source holds these as a separate data set.
For series [4] the following is noted: due to metabolic liability; cited from earlier work.
Series [5] deals with T1, human Bradykinin B1 receptor (Homo sapiens, UniProt P46663).
T1 construct: host or cells: CHO-K1
T1 sequence (P46663 1-353): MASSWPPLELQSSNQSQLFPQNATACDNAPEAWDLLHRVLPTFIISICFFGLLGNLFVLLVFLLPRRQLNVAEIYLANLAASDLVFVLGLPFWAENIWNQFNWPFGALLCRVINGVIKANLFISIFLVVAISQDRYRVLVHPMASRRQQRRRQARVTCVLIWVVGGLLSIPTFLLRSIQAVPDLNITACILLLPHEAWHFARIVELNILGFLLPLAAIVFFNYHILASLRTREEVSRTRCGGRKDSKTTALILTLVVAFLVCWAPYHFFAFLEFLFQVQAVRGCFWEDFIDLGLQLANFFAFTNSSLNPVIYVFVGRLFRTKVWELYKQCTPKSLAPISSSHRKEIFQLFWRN
Kind of series: Calcium flux Assay (FLIPR) with cells expressing human Bradykinin B1 receptor (hB1). The format is cell-based. The conditions noted are these: absence of 0.1% BSA in assay buffer; CHO-K1 cell line expressing human B1 receptor; agonist Lys-(Des-Arg)-Bradykinin; read-out: hB1 free IC50.

Molecules are shown by their SMILES.

On to `C[C@@H]1CC[C@H](C)N1C(=O)c1ccc([C@@H](C)NC(=O)C2(NC(=O)c3cc(F)cc(C(F)(F)F)c3)CC2)c(F)c1`, for which the aqueous solubility entry in series [1] is listed as “reasonable”. In series [2], the “pharmacokinetic profile in rat” value is given as “reasonable”. The human metabolic stability result in series [3] is recorded as “poor”.
Consider `C[C@@H](NC(=O)C1(NC(=O)C(F)(F)F)CC1)c1ccc(-c2cccc(Cl)c2C(=O)O)cc1F` [MK-0686], for which the pharmacokinetic profile result in series [4] is on record as “suboptimal”.
Usually IC50 stands for the concentration at which inhibition is half-maximal. For `COC[C@@H](C)NC(=O)c1ccc(NC(=O)C2(c3ccc(C(F)(F)F)cc3F)CC2)cc1-c1nnn[nH]1` [Example 50, 4-[({1-[2-Fluoro-4-(trifluoromethyl)phenyl]cyclopropyl}carbonyl)amino]-N-[(2R)-1-methoxypropan-2-yl]-2-(1H-tetrazol-5-yl)benzamide], the IC50 in series [5] turned out to be 89 nM.
As for `O=C(N[C@H]1CCOC1)c1ccc(NC(=O)C2(c3ccc(C(F)(F)F)cc3F)CC2)cc1-c1nnn[nH]1` [Example 54, 4-[({1-[2-Fluoro-4-(trifluoromethyl)phenyl]cyclopropyl}carbonyl)amino]-N-[(3S)-tetrahydrofuran-3-yl]-2-(1H-tetrazol-5-yl)benzamide], the IC50 in series [5] worked out at 1530 nM.
